Data on 5 compounds can be found in publication PMC12239085, “Silver(I) Ions Bridging Oxadiazole-2-thione Derivatives with Mitochondriotropic Agents: A Promising Strategy for Potent Anticancer Chemotherapy” (Inorganic Chemistry, 2025).

Assay [1] deals with normal human fetal lung fibroblast (MRC-5) cells. Briefly: SRB toxicity assay, MRC-5. In kind it is cell-based. The following applies: 48 h incubation. Here is the method:
(§1) Stock solutions of compounds 1a–5a and 1–5 (0.01 M) in DMSO were freshly prepared and subsequently diluted with cell culture media to appropriate concentrations for various biological experiments. These included the assessment of cell viability using the SRB assay, micronucleus testing, cell morphology studies, cell cycle arrest, AO/EB staining, and mitochondrial membrane permeabilization tests. For CT-DNA binding studies, experiments were conducted in DMSO/buffer solutions. All biological experiments were performed in triplicate or more.
(§2) Stock solutions of 1a–5a and 1–5 (0.01 M) were dissolved in DMSO and subsequently diluted with cell culture medium to the desired concentrations (0.5–30 μM). MCF-7, MDA MB-231, and MRC-5 cells were plated in 96-well flat-bottom microplates at various densities: 6000, 8000, and 2000 cells per well, respectively. The cells were incubated for 24 h at 37 °C and then exposed to 1a–5a and 1–5 for 48 h. ,–
(§3) Cytotoxicity was evaluated using the SRB colorimetric assay at λ = 568 nm, with cell survival percentages calculated relative to the untreated control cells. Detailed information on the SRB assay procedure can be found in the previous publication. ,–
In general terms: The SRB assay estimates cell density from bound dye.

The test system of a further assay is MCF-7 cells. The assay can be described thus: Mitochondrial membrane permeabilization (MMP) assay. In kind it is cell-based, human. The following applies: MCF-7, IC50 values, 48 h. The source says: The assay relies on the fluorescence of a cationic hydrophobic dye, which accumulates in the mitochondrial membrane. Any quenching of the dye’s emitted fluorescence is attributed to the disruption of the mitochondrial membrane, resulting in the release of cytochrome C into the cytosol. ,− The percentage of fluorescence quenching in MCF-7 cells treated with compounds 1–5 is up to 20.7%, with the specific values being 20.0% (1), 20.7% (2), 2.9% (3), 5.1% (4), and 9.6% (5). […] Consequently, cell morphology, AO/EB staining, cell cycle arrest and MMP studies indicate that compounds 1–5 induce apoptosis in MCF-7 cells, primarily through direct or indirect interaction with DNA.
The MMP assay was conducted using the ″Mitochondria Membrane Potential Kit for Microplate Readers″ (MAK147), purchased from Sigma-Aldrich. MCF-7 cells were treated with 1–5 at their IC50 concentration. Fluorescence intensity was measured at an excitation wavelength of λex = 540 nm and an emission wavelength of λem = 590 nm. The experimental results included fluorescence intensities from the treated and untreated cell solutions. ,–

A further assay addresses T1, lipoxygenase (LOX) (Glycine max, UniProt P08170).
T1 sequence (P08170 1-839): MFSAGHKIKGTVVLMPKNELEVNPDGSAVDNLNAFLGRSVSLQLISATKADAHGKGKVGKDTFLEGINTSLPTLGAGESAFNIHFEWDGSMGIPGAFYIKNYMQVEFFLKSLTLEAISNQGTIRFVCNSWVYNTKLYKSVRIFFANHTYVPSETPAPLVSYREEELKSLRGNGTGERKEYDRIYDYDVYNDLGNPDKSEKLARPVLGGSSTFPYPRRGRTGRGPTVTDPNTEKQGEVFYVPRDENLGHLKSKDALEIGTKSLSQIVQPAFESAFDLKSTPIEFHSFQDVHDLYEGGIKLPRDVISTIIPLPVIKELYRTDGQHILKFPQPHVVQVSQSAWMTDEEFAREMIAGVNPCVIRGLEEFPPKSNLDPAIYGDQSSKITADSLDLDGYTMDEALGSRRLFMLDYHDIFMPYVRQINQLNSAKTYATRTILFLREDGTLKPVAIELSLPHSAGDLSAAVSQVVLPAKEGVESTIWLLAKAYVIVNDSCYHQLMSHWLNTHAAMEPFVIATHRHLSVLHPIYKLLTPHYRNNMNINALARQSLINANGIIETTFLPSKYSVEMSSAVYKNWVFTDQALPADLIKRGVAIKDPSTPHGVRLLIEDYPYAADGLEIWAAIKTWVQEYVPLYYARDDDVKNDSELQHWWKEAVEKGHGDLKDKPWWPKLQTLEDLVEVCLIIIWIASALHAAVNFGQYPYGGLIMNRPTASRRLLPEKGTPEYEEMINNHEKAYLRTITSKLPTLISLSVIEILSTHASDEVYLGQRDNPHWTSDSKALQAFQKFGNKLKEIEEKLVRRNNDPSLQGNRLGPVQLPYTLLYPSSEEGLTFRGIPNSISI
Briefly: Inhibition of linoleic acid peroxidation by LOX. In kind it is biochemical. The following applies: for IC50: linoleic acid 0.3 mM, borate buffer pH 9, read-out: IC50 against LOX; for pIC50 LOX: p(IC50)= -Log(IC50), Table S4, this study. How it is done: This study performed as previously reported. , In brief, a 0.2 M borate buffer solution at pH 9 was prepared by dissolving boric acid in double-distilled water (ddw). The pH was then adjusted to 9.0 using a 50% w/w sodium hydroxide solution.
The linoleic acid substrate solution was prepared as follows: 0.05 mL of linoleic acid was dissolved in 0.05 cm^3 of 95% ethanol within a volumetric flask. Subsequently, double-distilled water was gradually added until reaching a final volume of 5 cm^3. This solution was then diluted with 30 cm^3 of borate buffer.
The LOX enzyme solution was prepared in an ice-cold bath by diluting a stock solution of 10,000 U/mL. For each reaction, 500 U of enzyme was used per 3 cm^3 of reaction mixture. One unit of LOX activity corresponds to an increase in absorbance at 234 nm of 0.001 per minute.
Enzyme activity was monitored by UV spectrophotometry. Specifically, 0.05 cm^3 of enzyme solution was added to a cuvette containing 2 cm^3 of linoleic acid solution, along with the appropriate volumes of buffer and inhibitor solutions 1–5 (concentration range of 1.5 to 12.5 μΜ). The enzymatic activity was determined by measuring the increase in absorbance at 234 nm, which corresponds to the oxidation of linoleic acid (ε = 25,000 M^–1 cm^–1). During the assays, the substrate concentration was maintained constant at 0.3 mM, while the buffer and inhibitor volumes were adjusted to achieve final inhibitor concentrations ranging from 2 to 30 μM.
The degree of LOX activity (A%) in the presence or absence of the 1–5 was calculated according to the following equation: , A%=(Vo(inthepresenceofinhibitor/Vo(withoutinhibitor))×100(%) where V o is the initial rate.
The value of the initial rate (V o, μΜ min^–1) was calculated according to the following formula: Vo=ΔC/Δt=ΔA/ε×Δt=tgα/ε where C is the concentration of the product (hydroperoxy-linoleic acid), t is the reaction time, ε is the molar extinction coefficient of hydroperoxy-linoleic acid, and tgα represents the slope of the kinetic curve obtained by plotting absorbance against time.

For assay [2], the system named is MCF-7 human breast adenocarcinoma cells (hormone-dependent). The assay can be described thus: SRB antiproliferative assay, MCF-7. In kind it is cell-based. The following applies: for IC50: SRB assay, 48 h incubation; for pIC50 MCF-7: p(IC50)= -Log(IC50), Table S4, this study. How it is done:
as §1, §2, §3

Broadly, the IC50 is the concentration that inhibits the measured activity by half. Consider `Fc1ccccc1-c1nnc([S][Ag]([PH](c2ccccc2)(c2ccccc2)c2ccccc2)([PH](c2ccccc2)(c2ccccc2)c2ccccc2)[PH](c2ccccc2)(c2ccccc2)c2ccccc2)o1` [compound 2], for which 3120 ± 110 nM corresponded to half-maximal inhibition in assay [1] (IC50). Further, the “percentage of fluorescence quenching (MMP)” value (“percentage” for short) in the assay with MCF-7 cells came to 20.7%. For the same compound, on lipoxygenase (LOX), the IC50 came to 7300 nM and the “pIC50 LOX” value is recorded as 5.1. Moreover, in assay [2], half-maximal inhibition (IC50) required 2500 ± 190 nM and the “pIC50 MCF-7” value was found to be 5.6.
`Fc1ccc(-c2nnc([S][Ag]([PH](c3ccccc3)(c3ccccc3)c3ccccc3)([PH](c3ccccc3)(c3ccccc3)c3ccccc3)[PH](c3ccccc3)(c3ccccc3)c3ccccc3)o2)cc1` [compound 3] returned a concentration for half-maximal inhibition (IC50) in assay [1] of 2720 ± 190 nM. Moreover, the “percentage” value in the assay with MCF-7 cells was found to be 2.9%. Besides, on lipoxygenase (LOX), the IC50 turned out to be 6800 nM and the “pIC50 LOX” value came out at 5.2. Further, in assay [2], the IC50 was 2150 ± 160 nM and the “pIC50 MCF-7” value worked out at 5.7.
In the case of `Clc1ccccc1-c1nnc([S][Ag]([PH](c2ccccc2)(c2ccccc2)c2ccccc2)([PH](c2ccccc2)(c2ccccc2)c2ccccc2)[PH](c2ccccc2)(c2ccccc2)c2ccccc2)o1` [compound 4], the half-inhibitory concentration (IC50) in assay [1] amounted to 4070 ± 240 nM. For the same compound, the “percentage” value with MCF-7 cells stood at 5.1%. Further, on lipoxygenase (LOX), the IC50 stood at 7500 nM and the “pIC50 LOX” value is on record as 5.1. In assay [2], the concentration for half-maximal inhibition (IC50) amounted to 3000 ± 150 nM and the “pIC50 MCF-7” value is listed as 5.5.
In assay [1], `c1ccc(-c2nnc([S][Ag]([PH](c3ccccc3)(c3ccccc3)c3ccccc3)([PH](c3ccccc3)(c3ccccc3)c3ccccc3)[PH](c3ccccc3)(c3ccccc3)c3ccccc3)o2)cc1` [compound 1] yielded an IC50 of 3770 ± 160 nM. Also, the “percentage” value in the assay on MCF-7 cells worked out at 20.0%. Moreover, on lipoxygenase (LOX), the 50% inhibitory concentration (IC50) turned out to be 2500 nM and the “pIC50 LOX” value came out at 5.6. In assay [2], the IC50 turned out to be 2030 ± 90 nM and the “pIC50 MCF-7” value is reported as 5.7.
As for `Clc1cccc(-c2nnc([S][Ag]([PH](c3ccccc3)(c3ccccc3)c3ccccc3)([PH](c3ccccc3)(c3ccccc3)c3ccccc3)[PH](c3ccccc3)(c3ccccc3)c3ccccc3)o2)c1` [compound 5], the concentration for half-maximal inhibition (IC50) in assay [1] was found to be 2890 ± 80 nM. The “percentage” value in the assay on MCF-7 cells was 9.6%. Besides, on lipoxygenase (LOX), the 50% inhibitory concentration (IC50) was found to be 1800 nM and the “pIC50 LOX” value was determined as 5.7. In addition, in assay [2], the IC50 is 1690 ± 80 nM and the “pIC50 MCF-7” value is 5.8.
